Assay results published in patent US12312599B2, “Methods, compositions, and kits for producing beige adipocytes and treating metabolic disorders” (MaineHealth, priority 2018, dated 2025).

System: iPSCs
Test: Mesoderm induction of iPSCs: FOXF1 and IRX3 expression
Format: cell-based, human
Details: SB added to in-house mesoderm induction medium
Description: PSCs were cultured in monolayer on hESC-qualified Matrigel-coated plates (Corning) and expanded in NutriStem hPSC XF Medium (Stemgent) and passaged with ReLeSR passaging reagent (STEMCELL Technologies). For mesoderm induction (Day 0), PSC colonies was dissociated with TrypLE cell dissociation reagent (Thermofisher) and plated on Matrigel coated plates in NutriStem medium containing 10 μM Y-27632 Rho kinase inhibitor (Calbiochem). The following day (Day 1), NutriStem medium was replaced with STEMdiff Mesoderm Induction Medium (MIM) (STEMCELL Technologies) and changed each day until day 5.
Note: Only use Y-27632 stock solutions that have been resuspended in DMSO. […] Conduct Mesoderm induction of iPSC in a laminar flow cabinet. • 3. Expand cells in NutriStem hPSC XF Medium overnight and change 100% of the medium without Y-27632 every 24 hours in a laminar flow cabinet for cell culture. When changing media, tilt plate up and allow media to pool at the bottom of wells. Aspirate the pooled medium without touching the surface of the plate. Replace with medium warmed to room temperature by pipetting 2 ml down the side of the wells. Cell Passaging • 1. Expand cell colonies until they have reached 70-80% confluence in high-density areas of the wells. High-density accumulation can occur along the edges of the well as well as the middle. Cells permitted to reach high density will lose their potential for differentiation after multiple passages. • 2. Prior to cell passage, warm cell wash buffer and NutriStem hPSC XF Medium to room temperature. Conduct cell passage in a laminar flow cabinet. • 3. Aspirate NutriStem hPSC XF Medium from wells with vacuum aspirator and wash with PBS without calcium or magnesium. Remove PBS and add 1 ml of ReLeSR reagent to side of well. Agitate plate to allow ReLeSR reagent to spread evenly on the surface. • 4. Aspirate ReLeSR reagent with vacuum aspirator after 30 seconds, which will leave behind a thin film of liquid. Incubate plate at 37° C. for 5-8 minutes undisturbed. • 5. Add fresh NutriStem hPSC XF Medium to wells and gently remove the cell colonies from the plate. Check that most cells have been dislodged from the plate surface with a light microscope. If not, rewash with more medium as needed. • 6. Transfer cell colony suspension in NutriStem hPSC XF Medium to Matrigel coated culture plates for further expansion (see Cell plating and culture above). Generation of iPSC Derived MSCs Mesoderm Induction of iPSC • 1. When iPSCs have reached 70-80% confluence, they will need to be passaged as single cells rather than colonies prior to mesoderm induction (day 0). • 2. Prepare for passage by warming cell wash buffer and NutriStem hPSC XF medium to room temperature and add Y-27632 Rho kinase inhibitor to medium at a final concentration of 10 μM. […]

## NC(=O)c1ccc(-c2nc(-c3ccc4c(c3)OCO4)c(-c3ccccn3)[nH]2)cc1 [SB, SB431542]
  FOXF1 expression: loss
  IRX3 expression: increased expression
